Measurements reported in PubChem BioAssay AID1648 (Sanford-Burnham Center for Chemical Genomics, 2009).
Active and inactive are the calls of the source. The rule behind the calls is not given here.

What follows are compounds tested against Serine/threonine-protein kinase mTOR (Homo sapiens) (UniProt P42345) (assay: mTOR FRB domain ligand binding – biophysical, NMR (AID 1648)). Conditions: NMR binding to FRB domain, chemical shift.
Chain of Serine/threonine-protein kinase mTOR (Homo sapiens) (P42345 2015-2114): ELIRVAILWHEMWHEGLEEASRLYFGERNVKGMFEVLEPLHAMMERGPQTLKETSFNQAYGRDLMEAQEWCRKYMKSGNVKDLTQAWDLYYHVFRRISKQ

Structure (SMILES) | Kd
CC(=O)NCS(=O)(=O)c1ccc(C)cc1 | > 4 mM (inactive)
Cc1ccccc1C(=O)Nn1cnnc1 | > 4 mM (inactive)
Cc1cc(C(=O)N2CCC3(CC2)OCCO3)cs1 | > 4 mM (inactive)
CC12CN(CC#N)CC(C)(CN(CC#N)C1)C2=O | > 4 mM (inactive)
CC(=O)c1nnc2cc(C)nn2c1C | > 4 mM (inactive)
O=S(=O)(Nc1cccnc1Cl)c1ccccc1 | > 4 mM (inactive)
CC(=O)Nc1ccc(CN2CCOCC2)cc1 | > 4 mM (inactive)
Cc1cc(C)c(C#N)c(N2CCCC2)n1 | > 4 mM (inactive)
O=C1CSC(=Nc2ccc(F)cc2)N1 | > 4 mM (inactive)
Cc1nn(C)c(N2CCOCC2)c1N | > 4 mM (inactive)
Cc1cc(NC(=O)Cc2cccs2)no1 | > 4 mM (inactive)
Cc1ccccc1OCC(=O)O | > 4 mM (inactive)
O=S(=O)(Nc1cccc2cn[nH]c12)c1ccc(F)cc1 | > 4 mM (inactive)
O=C1CCC(=O)N1c1cccc([N+](=O)[O-])c1 | > 4 mM (inactive)
CCCCCCCCCCCC[C@H](C(=O)O)[C@@H](C)C(=O)O | > 4 mM (inactive)
CC(C)NS(=O)(=O)c1ccc(N)cc1 | > 4 mM (inactive)
O=C1CCc2ccccc2CN1 | > 4 mM (inactive)
NCC1COc2ccccc2O1 (stereo unspecified) | > 4 mM (inactive)
OCc1snnc1-c1ccccc1 | > 4 mM (inactive)
COc1cc(OC)c(OC)cc1C=O | > 4 mM (inactive)
O=C(O)CCc1c[nH]c2ccccc12 | > 4 mM (inactive)
Cn1nnc2c(Cl)ncnc21 | > 4 mM (inactive)
COc1ccccc1-c1nc(-c2ccc(C)nc2OC)no1 | > 4 mM (inactive)
O=C(NCc1ccccc1Br)c1ccco1 | > 4 mM (inactive)
CCNC(=S)N1CCCC(C(N)=O)C1 (stereo unspecified) | > 4 mM (inactive)

Structure (SMILES) | Kd
CC1CN(C2=NCCN2)CC(C)O1 (stereo unspecified) | > 4 mM (inactive)
COCc1nc(-c2cc(Br)ccc2OC)no1 | > 4 mM (inactive)
Cn1nc(C(C)(C)C)cc1N | > 4 mM (inactive)
O=C(O)C1CC(=O)N(Cc2ccc(F)cc2)C1 (stereo unspecified) | > 4 mM (inactive)
NC(=O)NCCCC(N)C(=O)O (stereo unspecified) | > 4 mM (inactive)
COC(=O)C[C@@H]1C2(C)C(=O)[C@@H](CC3=C4CC(O)O[C@@H](c5ccoc5)[C@]4(C)CCC32)[C@H](O)C1(C)C (stereo partly specified) | > 4 mM (inactive)
CN1CCc2c(sc(N)c2C#N)C1 | > 4 mM (inactive)
COc1ccc(-c2nc(N)n(C(C)=O)n2)cc1 | > 4 mM (inactive)
CC(CC(=O)NN)C1(O)CCCCC1 (stereo unspecified) | > 4 mM (inactive)
COC1C(O)C(O[C@H]2CC[C@]3(C=O)C4C(CC[C@]3(O)C2)[C@@]2(O)CC[C@H](C3=CC(=O)OC3)[C@@]2(C)C[C@H]4OC(C)=O)OC(C)C1OC(C)=O (stereo partly specified) | > 4 mM (inactive)
COc1nc(N2CCOCC2)nc(N)c1[N+](=O)[O-] | > 4 mM (inactive)
CC(=O)Nc1cnn(Cc2ccc(Br)cc2)c1 | > 4 mM (inactive)
NC1=NC(=O)C(Cc2ccccc2)S1 (stereo unspecified) | > 4 mM (inactive)
CC(=O)O[C@H]1C[C@@H](OC(C)=O)C(C)(C)C2C[C@@H](OC(C)=O)[C@@]3(C)C4=CC(=O)O[C@@H](c5ccoc5)[C@]4(C)CCC3[C@]21C (stereo partly specified) | > 4 mM (inactive)
CC(=O)Nc1ccc(C(=O)NC2=NCCS2)cc1 | > 4 mM (inactive)
Cc1ccc(/C=C2/NC(=S)NC2=O)s1 | > 4 mM (inactive)
CCOC(=O)c1cc(C)n(-n2cnnc2)c1C | > 4 mM (inactive)
O=S1(=O)CCC(NCc2ccccc2)C1 (stereo unspecified) | > 4 mM (inactive)
O=C(NC(=O)N1CCOCC1)c1ccccc1 | > 4 mM (inactive)
COc1c2c(cc3c1OCO3)CCN(C)C2 | > 4 mM (inactive)
N#Cc1c(N)c(C(=O)c2ccccc2)n2c1CCC2 | > 4 mM (inactive)
O=C(O)c1ccc2snnc2c1 | > 4 mM (inactive)
CC1CCN(C(=S)c2ccccc2O)CC1 | > 4 mM (inactive)
Cc1nc2ccc(C(=O)O)cc2[nH]1 | > 4 mM (inactive)
CSc1ccc(/C=c2\sc3ncnn3c2=O)cc1 | > 4 mM (inactive)

Structure (SMILES) | Kd
Cc1ccccc1NC(=O)/C=C\C(N)=O | > 4 mM (inactive)
CN(C)C(=O)c1ccc(-c2n[nH]c(=O)c3ccccc23)cc1 | > 4 mM (inactive)
C=C1C[C@]23C[C@@]1(O)CC[C@H]2[C@@]12C=C[C@H](O)C(C)(C(=O)O1)[C@H]2[C@@H]3C(=O)O | > 4 mM (inactive)
CC(=O)NC(=S)Nc1ccc(N(C)C(C)=O)cc1 | > 4 mM (inactive)
Cn1nc(C(=O)Nc2cccnc2)c2ccccc2c1=O | > 4 mM (inactive)
O=C(Nc1ccccc1)N1CCOCC1 | > 4 mM (inactive)
NCc1ccc2c(c1)OCO2 | > 4 mM (inactive)
Cc1cc(C(=O)N2CCN(S(C)(=O)=O)CC2)cs1 | > 4 mM (inactive)
CCCCCCCCCCCCCCCCCCOCC(O)CO (stereo unspecified) | > 4 mM (inactive)
O=C1NC(=S)N/C1=C\c1cccnc1 | > 4 mM (inactive)
CCc1noc(C)c1C(=O)N1CCOCC1 | > 4 mM (inactive)
Cc1ccc(S(=O)(=O)CCc2ccccn2)cc1 | > 4 mM (inactive)
COCC(=O)Nc1ccc(F)cc1F | > 4 mM (inactive)
COC(=O)c1ccccc1C | > 4 mM (inactive)
O=P(c1ccccc1)(c1ccccc1)C1CCOCC1 | > 4 mM (inactive)
Cc1ccc(NC(=O)CC2NCCNC2=O)c(C)c1 (stereo unspecified) | > 4 mM (inactive)
O=C(O)C1CSC(c2cc3ccccc3nc2Cl)N1 (stereo unspecified) | > 4 mM (inactive)
OCc1nccn1Cc1ccccc1 | > 4 mM (inactive)
NC(=O)CSc1nnc2ccc(-c3ccco3)nn12 | > 4 mM (inactive)
NC(=O)CSc1nnc2ccc(-c3ccccn3)nn12 | > 4 mM (inactive)
Cc1cc(C)n(S(=O)(=O)c2ccc(C)c(C)c2C)n1 | > 4 mM (inactive)
COc1cc(-c2nnc(NC(C)=O)o2)cc(OC)c1OC | > 4 mM (inactive)
COc1cc2cc3c4cc(OC)c(OC)cc4cc[n+]3c(C)c2cc1OC | > 4 mM (inactive)
O=S1(=O)C=CC(N2CCCCC2)C1 (stereo unspecified) | > 4 mM (inactive)
NC(=O)Cn1nc2c3c(cccc3c1=O)-c1ccccc1-2 | > 4 mM (inactive)

Structure (SMILES) | Kd
CNC(=O)C(=O)Nc1cccc(Cl)c1 | > 4 mM (inactive)
CC(C)(CO)NC(=O)c1ccccc1F | > 4 mM (inactive)
NCC(N)C(=O)c1ccccc1 (stereo unspecified) | > 4 mM (inactive)
Cn1c(SCC(=O)NCCO)nc2ccccc2c1=O | > 4 mM (inactive)
CCc1cc2c(SCC(=O)O)ncnc2s1 | > 4 mM (inactive)
CCOc1nc(C)ccc1-c1noc(-c2ccncc2)n1 | > 4 mM (inactive)
N#CCSc1nc2ccccc2c(=O)n1-c1ccccc1 | > 4 mM (inactive)
CC(C)c1c(O)c(-c2cc3c(c(C(C)C)c2O)CCC2C(C)(C)CCC[C@]32C)cc2c1CCC1C(C)(C)CCC[C@]21C (stereo partly specified) | > 4 mM (inactive)
CCCCCCCCCCCC1=C(O)C(=O)C=C(O)C1=O | > 4 mM (inactive)
COc1cccc(NC(=O)c2cnn(C)c2Cl)c1 | > 4 mM (inactive)
NC1CN2CCC1CC2 (stereo unspecified) | > 4 mM (inactive)
Clc1ccc(SCCn2cncn2)cc1 | > 4 mM (inactive)
Cc1cc(C(=O)Nc2sc(C)c(C)c2C#N)no1 | > 4 mM (inactive)
Cc1cc(O)cc(=O)o1 | > 4 mM (inactive)
NCc1ccc(S(=O)(=O)O)cc1 | > 4 mM (inactive)
COc1nc(-c2ccccc2)ccc1-c1noc(C)n1 | > 4 mM (inactive)
Cc1ccccc1NC(=O)CSc1ccnc(=O)[nH]1 | > 4 mM (inactive)
CC(=O)c1cnc2nc(C(F)(F)F)nn2c1C | > 4 mM (inactive)
CCc1sc(C(=O)NC)cc1Br | > 4 mM (inactive)
COc1cc([C@@H]2c3cc4c(cc3[C@H](OC(C)=O)[C@H]3COC(=O)[C@@H]23)OCO4)cc(OC)c1OC | > 4 mM (inactive)
Cc1cc(O)cc(O)c1C(=O)O | > 4 mM (inactive)
O=c1c2ccccc2nc2n1CCCCN2 | > 4 mM (inactive)
Cc1nc2sccn2c1C(=O)O | > 4 mM (inactive)
COC(=O)CC1NC2CCCCC2NC1=O (stereo unspecified) | > 4 mM (inactive)
COc1cc(C(C)=O)ccc1OCC(O)Cn1ccnc1 (stereo unspecified) | > 4 mM (inactive)

Structure (SMILES) | Kd
CC1(C)CC[C@]2(C(=O)O)CC[C@]3(C)C(=CCC4[C@@]5(C)CC[C@@H](O)C(C)(C)C5CC[C@]43C)C2C1 (stereo partly specified) | > 4 mM (inactive)
CNC(=O)c1c(O)c2ccccc2[nH]c1=O | > 4 mM (inactive)
CC(=O)Nc1cccc(NC(=O)c2cccnc2)c1 | > 4 mM (inactive)
O=C(O)c1ccc(NCc2cccnc2)cc1 | > 4 mM (inactive)
NC(=O)C1CCN(C(=O)c2ccco2)CC1 | > 4 mM (inactive)
CC(=O)N1CCN(C2CCSC2)CC1 (stereo unspecified) | > 4 mM (inactive)
CCc1c(C)n([O-])c2c([n+]1=O)CCC2 | > 4 mM (inactive)
CC(=O)C1CCC2C3CCC4C[C@H](O)CCC4(C)C3C[C@H](O)C12C (stereo partly specified) | > 4 mM (inactive)
Cc1cc(C)n(S(=O)(=O)c2cc(C)c(C)cc2C)n1 | > 4 mM (inactive)
NC(=O)C1CCN(C(=O)c2ccccc2)CC1 | > 4 mM (inactive)
Cc1nn(C)c(Cl)c1C(O)c1c(C)nn(C)c1Cl | > 4 mM (inactive)
COc1cc(OC)c(-c2c(OC)cc(OC)cc2OC)c(OC)c1 | > 4 mM (inactive)
O=C(O)c1ccc(-c2cccs2)s1 | > 4 mM (inactive)
C/C=C(\C)C(=O)O[C@@H]1c2c(ccc3ccc(=O)oc23)OC(C)(C)[C@@H]1OC(C)=O | > 4 mM (inactive)
O=C1CCC(=O)N1CN1CCOCC1 | > 4 mM (inactive)
CC(=O)N1CCc2cc(NC(=O)c3ccc(C)cc3)ccc21 | > 4 mM (inactive)
CC1CC2(NC(=O)NC2=O)C(C)CN1C (stereo unspecified) | > 4 mM (inactive)
Cc1occc1C(=O)NCc1ccccc1F | > 4 mM (inactive)
COc1ccc2c(c1)OCC(Cc1ccc(OC)c(OC(C)=O)c1)C2=O (stereo unspecified) | > 4 mM (inactive)
Cc1ccccc1N1CCN(C(=O)C2CCCCC2)CC1 | > 4 mM (inactive)
Cn1c(=O)c2c(ncn2CCN)n(C)c1=O | > 4 mM (inactive)
